Converted amounts (≈) assume the structure as drawn.
Key:
BCL-6/NCOR2 = BCL-6/NCOR2 (Homo sapiens, UniProt P41182); assay: Inhibition of BCL6/SMRT protein protein interaction (unknown origin) by TR-FRET assay
[1] = Plasma clearance in Balb/C mouse at 1 mg/kg, po or 5 mg/kg, iv; assay type: ADME, organism-based; conditions: in vivo
[2] = Aqueous solubility of the compound; assay type: physicochemical; conditions: buffer
[3] = Oral bioavailability in SCID mouse plasma at 100 mg/kg; assay type: ADME, organism-based
[4] = target: B-cell lymphoma 6 protein (Homo sapiens, UniProt P41182); assay: Inhibition of human BCL6 […] domain
[5] = Oral bioavailability in SCID mouse plasma at 10 mg/kg; assay type: ADME, organism-based; parameters: dose 10 mg/kg, route po
SUD4 [6] = assay: Decrease in number of living cells in human SUDHL4 cells at […] incubated for 48 hrs by EdU flow cytometry assay (reference value: 48%); parameters: scale not given: the % may be the effect or the level left; conditions: dose 2.5 µM
SUD4 [7] = assay: Antitumor activity against human SU-DHL-4 cells xenografted in mouse assessed as reduction in tumor volume at 5 mg/kg, iv treated every other day for 3 days; assay type: functional; parameters: scale not given: the % may be the effect or the level left; conditions: time 3 day
OCI-Ly7 = assay: cells; conditions: Homo sapiens
Description: Antiproliferative activity against BCL-6 dependent human OCILY7 cells by CCK-8 assay

DOHH-2 = assay: cells; conditions: Homo sapiens
Description: Antiproliferative activity against BCL-6 dependent human DOHH-2 cells by CCK-8 assay

SUD4 [8] = assay: Antitumor activity against CD69 human SU-DHL-4 cells xenografted in mouse assessed as increase in mRNA expression at 5 mg/kg, administered daily for 3days by RT-PCR analysis; assay type: functional
SUD4 [9] = assay: cells; conditions: Homo sapiens, SU-DHL-4
Description: Antiproliferative activity against BCL-6 dependent human SU-DHL-4 cells by CCK-8 assay

SUD4 [10] = assay: Antitumor activity against ATR human SU-DHL-4 cells xenografted in mouse assessed as increased in mRNA expression at 5 mg/kg, administered daily for 3days by RT-PCR analysis; assay type: functional
[11] = Metabolic stability in human liver microsome assessed as half life; assay type: ADME; conditions: liver microsomes
Farage = assay: cells; conditions: Homo sapiens
Description: Antiproliferative activity against BCL-6 dependent human Farage cells by CCK-8 assay

[12] = Intrinsic clearance in mouse microsomes; assay type: ADME, Microsome
SUD4 [13] = assay: Antitumor activity against CXCR4 human SU-DHL-4 cells xenografted in mouse assessed as increase in mRNA expression at 5 mg/kg, administered daily for 3days by RT-PCR analysis; assay type: functional
SUD4 [14] = assay: Decrease in number of living cells in human SUDHL4 cells at 1.25 uM incubated for 48 hrs by EdU flow cytometry assay (reference value: 48%); parameters: scale not given: the % may be the effect or the level left
[15] = Intrinsic clearance in mouse liver; assay type: ADME, tissue-based; conditions: read-out: CLH
SUD4 [16] = assay: Antitumor activity against human SU-DHL-4 cells xenografted in mouse assessed as reduction in tumor weight at 5 mg/kg, iv treated every other day for 3 days; assay type: functional; parameters: scale not given: the % may be the effect or the level left; conditions: time 3 day
SUD4 [17] = assay: Decrease in number of living cells in human SUDHL4 cells at 0.625 uM incubated for 48 hrs by flow cytometry (reference value: 48%); parameters: scale not given: the % may be the effect or the level left
Toledo = assay: cells; conditions: Homo sapiens
Description: Antiproliferative activity against BCL-6 independent human Toledo cells by CCK-8 assay

## COc1ccc(Nc2nc(NCC(C)C)ncc2F)cc1Cl
BCL-6/NCOR2
  IC50: 19000 nM

## C[C@@H]1CN(c2ncc(Cl)c(Nc3ccc4c(c3)n(CCC(C)(C)O)c(=O)n4C)n2)C[C@H](C)C1(F)F
[1]
  clearance: 20 mL/min/kg

## Cn1c(=O)n(C)c2cc(Nc3cc(SCc4ccccc4)ncn3)ccc21
[2]
  solubility: < 30 µM

## CNC(=O)COc1cc2cc(Nc3nc(N4C[C@H](C)C[C@H](C)C4)ncc3Cl)ccc2n(C)c1=O
[3]
  Cmax: 599 nM
[4]
  IC50: ≤ 3 nM
[5]
  AUC: 1.86 µM·h
  Cmax: 193 nM

## N#Cc1c(NCC2CC2)ccnc1Cl
[2]
  solubility: 300 µM (≈ 62.3 µg/mL)

## N#Cc1c(NCc2ccccc2)ccnc1Cl
[2]
  solubility: 60 µM (≈ 14.6 µg/mL)

## CNC(=O)COc1cc2cc(Nc3nc(N4CCC(C(=O)N(C)C)CC4)ncc3Cl)cc(OC)c2n(C)c1=O
[4]
  IC50: ≤ 3 nM

## COc1cc(Nc2nc(N3C[C@@H](C)N[C@@H](C)C3)ncc2F)ccc1NC(=O)c1ccc(C2=CCCC2)s1
SUD4 [6]
  Activity: 6.6%
SUD4 [7]
  Activity: 60%
OCI-Ly7
  IC50: 1000 nM
DOHH-2
  IC50: 1000 nM
SUD4 [8]
  Activity: >150%
SUD4 [9]
  IC50: 1000 nM
SUD4 [10]
  Activity: >200%
[11]
  half-life: > 1 h
Farage
  IC50: 1000 nM
[12]
  microsomal CLint: < 9.6 µL/min/mg
SUD4 [13]
  Activity: >60%
SUD4 [14]
  Activity: 13%
[15]
  CLint scaled: < 38 mL/min/kg
SUD4 [16]
  Activity: 70%
SUD4 [17]
  Activity: 27%
Toledo
  IC50: 3300 nM

## Cn1c(=O)n(C)c2cc(Nc3ncccc3C#N)ccc21
[2]
  solubility: 300 µM (≈ 83.8 µg/mL)

Source: ChEMBL document CHEMBL5223079, “Progress toward B-Cell Lymphoma 6 BTB Domain Inhibitors for the Treatment of Diffuse Large B-Cell Lymphoma and Beyond” (J Med Chem, 2021)
